{"source": "patent US20210038732A1", "about": "“ANTICANCER MICRORNA AND LIPID FORMULATIONS THEREOF” (INTERNA TECHNOLOGIES B.V., priority 2018, published 2021)", "key": {"A549, H460": {"tested_on": "A549, H460", "assay": "Cell cycle arrest profile (nuclei imaging or flow cytometry)", "format": "cell-based, human", "details": "10 nM", "description": "Depending on cancer cell type 3000-6000 cells were seeded in a 96 well plate. After cells attached, they were transfected with different concentrations of miRNA-193a and cell cycle profile was measured at different time points. At selected time points media was aspirated from wells and DNA staining solution (Hoescht 33342/Saponin/PFA) was added to each well and incubated for 2 hours at 37° C. Then, cell images were taken using Thermo Celllnsite in which nuclei were specified and nuclei intensity were measured. Nuclei intensity was analyzed using program R to determine the different phases of the cell cycle (G0/G1, S, G2/M) based on the DNA content.\nTo specifically detect the cells that are undergoing apoptosis, FITC Annexin V apoptosis detection kit (BD pharmingen) was used. […] After cells attached, they were transfected with different concentrations of miRNA-193a and apoptosis assay was measured at different time points following the manufacturer's protocol. With this assay we have detected the percentage of apoptotic cells indicating the SubG1 phase of the cell cycle.\nDifferent biological effects of miRNA-193a-3p have been tested in various cancer cell lines (see Table 13). […] For all experiments controls (untreated, mock and scrambled) were measured. […] All the results have been quantified and normalized to the mock control. […]"}, "4T1": {"tested_on": "4T1", "assay": "Caspase 3/7 apoptosis assay", "format": "cell-based, mouse", "details": "10 nM, normalized to mock", "description": "Depending on cancer cell type 3000-6000 cells were seeded in a 96 well plate. After cells attached, they were transfected with different concentrations of miRNA-193a and apoptosis induction was measured at different time points. This assay was performed using Promega kit. 100 uL of caspase reagent was added to 100 uL of media in each well in 96-well plate and incubated for 2 hours in the dark at room temperature. The luminescent signal was read on a luminescent plate reader.\nDifferent biological effects of miRNA-193a-3p have been tested in various cancer cell lines (see Table 13). For this, various cells were treated with miRNA-193a at different concentrations (1, 3, 10 nM). For all experiments controls (untreated, mock and scrambled) were measured. All assays were performed at 24h, 48h and 72h time points. Data shown in Table 13 are the results for miRNA-193a at 10 nM concentration at indicated time points. All the results have been quantified and normalized to the mock control.\nmiRNA-193a treatment in various cancer cell lines decreased cell viability over time as measured by either an MTS assay or by cell count. It enhanced apoptosis induction over time as measured by a caspase 3/7 apoptosis assay. […] It is of note that due to intrinsic characteristics and gene mutation status of each cell line, performing one method to detect apoptosis is not always ideal for all cell lines."}, "NT5E and ENTPD1": {"tested_on": "NT5E and ENTPD1", "assay": "NT5E and ENTPD1 expression at mRNA and protein level (RT-PCR, western blot)", "format": "cell-based", "details": "10 nM, variety of cell lines", "description": "To prepare cDNA, first 100 ng total RNA was mixed with Random Hexamers (Qiagen; final concentration 2 μM) in a final volume of 12.5 μl in NFW, denatured for 5 min at 70° C. and immediately cooled on ice. Next, 7.5 μl of a cDNA synthesis mix was added, consisting of 4 μl 5×RT Buffer (Promega), 0.4 μl 25 mM dNTPs (Promega), 1 μl 200 U/μL MMLV RT-enzyme (Promega), 0.5 μL 40 U/μL RNAse Inhibitor (Promega) and 1.6 μL NFW. The following cDNA synthesis protocol was used:\nApproximately 1×10^6 cells were harvested and lysed in immunoprecipitation RIPA lysis buffer and the lysates were blotted onto a PVDF membrane. Membranes were probed overnight with primary antibodies and bound antibodies were visualized using HRP-linked secondary antibodies (Cell-Signalling). The antibodies used for western blot included anti-NT5E (D7F9A) from Cell Signalling Technology, and anti-αTubulin from Santa Cruz. αTubulin was used as a loading control for the western blot experiment.\nTo assess the impact of miRNA-193a-3p on adenosine generation, the release of free phosphate in A2058 melanoma cells was measured as a read out for ATP, ADP, and AMP dephosphorylation in supernatants. […] Similar results were found by measuring the direct amount of adenosine in cell culture supernatants (FIG. 16B). Further, the role of miRNA-193a in A2058 cancer cell migration was investigated."}, "[1]": {"tested_on": "H22 (mouse liver tumor cells)", "assay": "Re-challenge of surviving treated mice with H22 cells (Example 4.4)", "format": "in vivo", "description": "To investigate the long-term immunity in miRNA-193a treated mice against 4T1 cells, on day 75 after inoculation, mice treated with miRNA-193a and 8 naïve (non-tumor bearing) mice were re-challenged by subcutaneous injection of 3×10^5 4T1 mouse tumor cells in PBS (0.1 mL/mouse) into the right front flank. TV and BW were monitored for 3 weeks. Then, to investigate the immunization status of miRNA-193a treated mice against other cell types, on day 101, mice treated with miRNA-193a and 8 naïve (non-tumor bearing) mice were re-challenged by subcutaneous injection of H22 (mouse liver tumor cells) cells in PBS (0.1 mL/mouse) into the right lower flank."}}}
{"substance": "miRNA-193a: duplex of the miRNA-193a-3p of SEQ ID NO: 218 (mimic, sense) with antisense strand SEQ ID NO: 219; naked in vitro, formulated in vivo (sense UGGGACUUUGUAGGCCAGUUTT; antisense AACUGGCCUACAAAGUCCCAGU; chemistry not given here; listed as Homo sapiens)", "values": [{"measurement": "Cell cycle arrest (72 h)", "setting": "A549, H460", "value": "SubG1"}, {"measurement": "Apoptosis (48/72 h)", "setting": "4T1", "value": "↑ (Induction < 2x)"}, {"measurement": "Expression of both enzymes involved in adenosine generation pathway (NT5E, ENTPD1)", "setting": "NT5E and ENTPD1", "value": "downregulated the expression of both enzymes"}, {"measurement": "Tumor take after re-challenge with H22 cells", "setting": "[1]; re-challenge day 101, 38 days post end of treatment", "value": 100, "unit": "%"}, {"measurement": "H22 tumor growth after re-challenge", "setting": "[1]; re-challenge day 101, vs naïve mice", "value": "rapid inhibition of H22 tumor growth"}]}
